According to the OligoGym collection:
Oligonucleotides are written 5' to 3', each unit as a sugar letter and its base; * is a phosphorothioate linkage, no mark a phosphodiester; rarer units and linkages stand in square brackets, end groups in braces. Plain capitals give the bases only. Oligonucleotides are given in HELM: sugar(base)linkage, 5' to 3'; d 2'-deoxyribose, r ribose, m 2'-O-methylribose, p phosphate. ss, as = sense and antisense strand; d = 2'-deoxy (DNA); r = 2'-OH (RNA)

biological target: P2RX3; assay: reporter assay of Huesken 2005; conditions: siRNA
Further: test concentration or dose not given here.

Substance	normalised inhibition (eCFP-eYFP dual reporter) [%]
sense rGrCrGrGrGrUrArGrGrGrGrArCrGrUrGrGrUrCdTdT / antisense rGrArCrCrArCrGrUrCrCrCrCrUrArCrCrCrGrCdAdA	37.2
sense rGrCrUrCrCrGrGrArCrUrCrUrArCrGrCrCrArAdTdT / antisense rUrUrGrGrCrGrUrArGrArGrUrCrCrGrGrArGrCdCdC	87.3
sense rGrGrArArArCrGrCrCrCrArUrCrArUrGrArUrGdTdT / antisense rCrArUrCrArUrGrArUrGrGrGrCrGrUrUrUrCrCdAdC	74.8
sense rGrGrCrCrGrArCrCrArGrUrArCrArArArGrCrCdTdT / antisense rGrGrCrUrUrUrGrUrArCrUrGrGrUrCrGrGrCrCdCdC	68
sense rGrGrCrCrGrCrUrGrCrGrUrGrArArCrUrArCrAdTdT / antisense rUrGrUrArGrUrUrCrArCrGrCrArGrCrGrGrCrCdAdG	72.3
sense rGrGrCrCrUrUrUrArCrUrUrCrUrGrUrGrGrGrAdTdT / antisense rUrCrCrCrArCrArGrArArGrUrArArArGrGrCrCdGdC	80.2
sense rGrGrGrCrArUrUrArArGrArUrCrGrGrCrUrGrGdTdT / antisense rCrCrArGrCrCrGrArUrCrUrUrArArUrGrCrCrCdAdG	59.7
sense rGrGrGrUrArGrGrGrGrArCrGrUrGrGrUrCrArAdTdT / antisense rUrUrGrArCrCrArCrGrUrCrCrCrCrUrArCrCrCdGdC	94.9
sense rGrGrUrArCrGrGrGrArCrArCrArGrCrCrArUrUdTdT / antisense rArArUrGrGrCrUrGrUrGrUrCrCrCrGrUrArCrCdTdG	61.2
sense rGrGrUrGrArArUrGrArGrArCrUrArCrGrCrUrGdTdT / antisense rCrArGrCrGrUrArGrUrCrUrCrArUrUrCrArCrCdTdC	87.3
sense rGrUrArCrCrGrCrArCrCrCrUrCrCrUrGrArArGdTdT / antisense rCrUrUrCrArGrGrArGrGrGrUrGrCrGrGrUrArCdTdC	37.1
sense rUrArArCrCrArArGrGrUrGrArArGrGrGrCrUrCdTdT / antisense rGrArGrCrCrCrUrUrCrArCrCrUrUrGrGrUrUrAdCdC	16.2
sense rUrArGrGrGrUrGrGrGrUrUrUrUrCrUrUrGrCrAdTdT / antisense rUrGrCrArArGrArArArArCrCrCrArCrCrCrUrAdCdA	82.2
sense rUrCrArCrUrArUrUrUrUrCrArUrCrArArGrArAdTdT / antisense rUrUrCrUrUrGrArUrGrArArArArUrArGrUrGrAdAdG	79.6
sense rUrCrArGrArCrArGrCrCrArGrUrGrCrGrGrGrCdTdT / antisense rGrCrCrCrGrCrArCrUrGrGrCrUrGrUrCrUrGrAdTdA	23.8
sense rUrCrCrUrCrArCrUrGrGrCrCrGrCrUrGrCrGrUdTdT / antisense rArCrGrCrArGrCrGrGrCrCrArGrUrGrArGrGrAdTdC	16.4

Substance	normalised inhibition (eCFP-eYFP dual reporter) [%]
sense rUrCrCrUrGrCrUrCrArArCrUrUrCrCrUrCrArAdTdT / antisense rUrUrGrArGrGrArArGrUrUrGrArGrCrArGrGrAdTdG	90.3
sense rUrCrGrGrCrUrGrGrGrUrGrUrGrCrGrArCrUrUdTdT / antisense rArArGrUrCrGrCrArCrArCrCrCrArGrCrCrGrAdTdC	77.1
sense rUrCrGrGrUrCrUrUrUrGrUrCrArUrCrArUrCrAdTdT / antisense rUrGrArUrGrArUrGrArCrArArArGrArCrCrGrAdGdG	72.8
sense rUrCrUrUrGrCrGrGrGrUrArGrGrGrGrArCrGrUdTdT / antisense rArCrGrUrCrCrCrCrUrArCrCrCrGrCrArArGrAdTdG	75.9
sense rUrGrArCrArGrCrCrArGrGrGrArCrArUrGrArAdTdT / antisense rUrUrCrArUrGrUrCrCrCrUrGrGrCrUrGrUrCrAdGdG	90.5
sense rUrGrCrArUrCrCrCrCrArArArUrArCrUrCrCrUdTdT / antisense rArGrGrArGrUrArUrUrUrGrGrGrGrArUrGrCrAdCdT	56.3
sense rUrGrCrCrGrCrUrUrCrCrArCrCrCrGrGrArCrAdTdT / antisense rUrGrUrCrCrGrGrGrUrGrGrArArGrCrGrGrCrAdGdG	93.7
sense rUrGrGrUrGrCrCrCrCrArCrGrGrArGrGrUrGrGdTdT / antisense rCrCrArCrCrUrCrCrGrUrGrGrGrGrCrArCrCrAdGdC	13.5
sense rUrGrUrCrUrGrArUrUrArCrGrUrGrArCrGrCrCdTdT / antisense rGrGrCrGrUrCrArCrGrUrArArUrCrArGrArCrAdCdA	43.1
sense rUrUrArArGrArUrCrGrGrCrUrGrGrGrUrGrUrGdTdT / antisense rCrArCrArCrCrCrArGrCrCrGrArUrCrUrUrArAdTdG	55.4
sense rUrUrCrArGrCrUrUrCrUrGrArUrCrArUrCrUrCdTdT / antisense rGrArGrArUrGrArUrCrArGrArArGrCrUrGrArAdCdT	46.8
sense rUrUrCrUrGrCrCrCrArGrArGrArGrUrGrArGrGdTdT / antisense rCrCrUrCrArCrUrCrUrCrUrGrGrGrCrArGrArAdTdC	44.3
sense rUrUrGrCrGrGrGrGrCrArGrGrArUrUrUrUrGrCdTdT / antisense rGrCrArArArArUrCrCrUrGrCrCrCrCrGrCrArAdAdC	33.4
sense rUrUrGrUrUrArCrUrGrArArArArUrCrArGrArUdTdT / antisense rArUrCrUrGrArUrUrUrUrCrArGrUrArArCrArAdTdC	54.1
sense rUrUrUrCrUrGrCrCrCrCrArUrCrUrUrGrCrGrGdTdT / antisense rCrCrGrCrArArGrArUrGrGrGrGrCrArGrArArAdGdG	35.2
sense rUrUrUrGrCrCrArArArCrUrGrGrCrGrCrGrCrAdTdT / antisense rUrGrCrGrCrGrCrCrArGrUrUrUrGrGrCrArArAdAdT	37.3

biological target: UBE2K; assay: reporter assay of Huesken 2005; conditions: siRNA

Substance	normalised inhibition (eCFP-eYFP dual reporter) [%]
RNA1{r(A)p.r(A)p.r(A)p.r(A)p.r(U)p.r(A)p.r(U)p.r(G)p.r(G)p.r(C)p.r(A)p.r(U)p.r(C)p.r(C)p.r(U)p.r(A)p.r(A)p.r(U)p.r(A)p.d(T)p.d(T)}|RNA2{r(U)p.r(A)p.r(U)p.r(U)p.r(A)p.r(G)p.r(G)p.r(A)p.r(U)p.r(G)p.r(C)p.r(C)p.r(A)p.r(U)p.r(A)p.r(U)p.r(U)p.r(U)p.r(U)p.d(A)p.d(G)}$$$RNA1{StrandType:ss}|RNA2{StrandType:as}$	67.3
RNA1{r(A)p.r(A)p.r(A)p.r(U)p.r(A)p.r(G)p.r(C)p.r(A)p.r(G)p.r(G)p.r(A)p.r(C)p.r(C)p.r(U)p.r(C)p.r(C)p.r(A)p.r(G)p.r(A)p.d(T)p.d(T)}|RNA2{r(U)p.r(C)p.r(U)p.r(G)p.r(G)p.r(A)p.r(G)p.r(G)p.r(U)p.r(C)p.r(C)p.r(U)p.r(G)p.r(C)p.r(U)p.r(A)p.r(U)p.r(U)p.r(U)p.d(C)p.d(T)}$$$RNA1{StrandType:ss}|RNA2{StrandType:as}$	65.4
